Assays:
[1] = Metabolite identification, human cryopreserved hepatocyte incubation of parent compound; format: in vitro ADME; conditions: parent incubated up to four hours
Protocol: (§1) Hepatocytes: Rat, dog and human cryopreserved hepatocyte incubations were performed using 1-{2-[5-(3-Methyl-oxetan-3-ylmethoxy)-benzoimidazol-1-yl]-quinolin-8-yl}-piperidin-4-ylamine. Rat, dog and human cryopreserved hepatocytes were obtained from In Vitro Technologies, Baltimore, Md. and suspended in Williams E Media, available from Fisher-Scientific, to a final cell density of 1×10^6 viable cells/mL. 1-{2-[5-(3-Methyl-oxetan-3-ylmethoxy)-benzoimidazol-1-yl]-quinolin-8-yl}-piperidin-4-ylamine was incubated in these hepatocyte suspensions at a final concentration of […] at 37° C. in a shaking water bath for up to four hours. A 5 mL aliquot was removed from each incubation mixture immediately and at four hours after addition of substrate. The samples were prepared for analysis by mixing with two volumes of acetonitrile followed by centrifugation to pellet precipitated proteins. The […] were evaporated to dryness before analysis. Dried samples were reconstituted in 300 μL 50/50 10 mM ammonium formate, pH 3.0/acetonitrile, and 10 μL aliquots were analyzed by LC/MS/MS. 1-{2-[5-(2-Methoxy-ethoxy)-benzoimidazol-1-yl]-quinolin-8-yl}-piperidin-4-ylamine was incubated in dog hepatocytes under the same conditions as a positive control.
(§2) Separation of 1-{2-[5-(3-Methyl-oxetan-3-ylmethoxy)-benzoimidazol-1-yl]-quinolin-8-yl}-piperidin-4-ylamine and its metabolites in all samples was accomplished on a Zorbax SB-C18 reverse phase column (5 μm, 4.6×150 mm) at a flow rate of 1.0 mL/min. The mobile phase consisted of 10 mM ammonium formate, pH 3.0, (A) and acetonitrile (B). After injection of the sample, the column was washed with 10% B for 5 minutes followed by resolution of the metabolites with a linear gradient from 10% to 50% B over a 20-minute period. A 5-minute wash with 90% B followed by a 7-minute re-equilibration to 10% B was used between subsequent injections.
(§3) All Samples were analyzed by a Finnigan TSQ7000 mass spectrometer operated in positive ion mode with in-line ultraviolet detection (Shimadzu, λ=254 nm). Ionspray voltage and capillary temperature were maintained at 4.5 kV and 350 degrees Celsius, respectively. Product ion spectra were obtained with CID of 35 V; further fragmentation was obtained by conducting product ion scans with source CID of 10 V. Neutral loss scans of 176 (for glucuronide detection) were conducted with CID of 30 V.
(§4) The metabolites were initially identified by molecular ion (Q1) scans of the sample mixture. Potential metabolites were characterized by fragmentation of the metabolite molecular ions and comparison of the resulting fragmentation patterns with the 1-{2-[5-(3-Methyl-oxetan-3-ylmethoxy)-benzoimidazol-1-yl]-quinolin-8-yl}-piperidin-4-ylamine product mass spectrum.

[2] = Metabolite identification, rat cryopreserved hepatocyte incubation of parent compound; format: in vitro ADME; conditions: parent incubated up to four hours
Protocol: as §1, §2, §3, §4

[3] = Metabolite identification, dog cryopreserved hepatocyte incubation of parent compound; format: in vitro ADME; conditions: parent incubated up to four hours
Protocol: as §1, §2, §3, §4

[4] = Metabolite identification, human liver cytosol incubation of parent compound; format: in vitro ADME; conditions: parent incubated one hour; also: key: −: metabolite not observed; +: minor metabolite; +++: major metabolite
Protocol: (§5) Cytosol: 1-{2-[5-(3-Methyl-oxetan-3-ylmethoxy)-benzoimidazol-1-yl]-quinolin-8-yl}-piperidin-4-ylamine (10 μM) was incubated and prepared for analysis. Cryopreserved human liver cytosol from Tissue Transformation Technologies Inc., Edison, N.J., (lot: HHC-0255, ˜20 mg/mL) and dog liver cytosol (˜35 mg/mL) were thawed on ice immediately before the incubation. The cytosol was diluted 10-fold in 100 mM potassium phosphate buffer (pH 7.4) before addition of 1-{2-[5-(3-Methyl-oxetan-3-ylmethoxy)-benzoimidazol-1-yl]-quinolin-8-yl}-piperidin-4-ylamine (final concentration […]) for a final incubation volume of 2 mL. Samples were incubated for one hour in a 37° C. water bath, then quenched with two volumes of acetonitrile. Samples were vortexed and subsequently centrifuged at 3000 rpm. Samples were prepared for analysis by centrifugation at 3000 rpm to pellet the precipitated proteins and by evaporating the supernatant to dryness. The samples were reconstituted in 300 μL 50/50 10 mM ammonium formate, pH 3.0/acetonitrile. A 10 μL reconstituted aliquot was analyzed by LC/MS/MS. 1-{2-[5-(2-Methoxy-ethoxy)-benzoimidazol-1-yl]-quinolin-8-yl}-piperidin-4-ylamine was incubated in human and dog liver cytosol under the same conditions as a positive control.
as §2, §3, §4

[5] = Metabolite identification, dog liver cytosol incubation of parent compound; format: in vitro ADME; conditions: for Relative Abundance of metabolite, Dog Liver Cytosol: parent incubated one hour
Protocol: as §5, §2, §3, §4

[6] = Metabolite identification in dog plasma after intravenous administration of parent compound; format: in vivo, beagle dogs; conditions: for Relative Abundance of metabolite, Dog Plasma (IV): 2.0 mg/kg intravenous parent, 20 min, 40 min and 1 h samples
Protocol: Dog Plasma and Bile: Dog plasma was collected from beagle dogs following intravenous administration (2.0 mg/kg) of 1-{2-[5-(3-Methyl-oxetan-3-ylmethoxy)-benzoimidazol-1-yl]-quinolin-8-yl}-piperidin-4-ylamine. A 200 μL plasma sample from each dog was pooled for each timepoint. Three volumes of acetonitrile were added to the pooled plasma samples to precipitate proteins. Following centrifugation, the supernatant was recovered and dried at 37° C. under nitrogen and reconstituted in 150 μL 50/50 10 mM ammonium formate, pH 3.0/acetonitrile. A 20 μL aliquot was analyzed by LC/MS/MS.
as §2, §3, §4

[7] = Metabolite identification in dog bile after administration of parent compound; format: in vivo, beagle dogs; conditions: for Relative Abundance of metabolite, Dog Bile (IV): only 2-4 hr samples analyzed, cannot distinguish between M6 and M7; for Excretion in bile: dog, after 5.0 mg/kg oral administration of parent
[8] = Metabolite identification, human liver microsome incubation of parent compound; format: in vitro ADME; conditions: for Relative Abundance of metabolite, HLM-NADPH ctrl: human liver microsomes, control without NADPH; for Relative Abundance of metabolite, Human Liver Microsomes: parent incubated 1 h with NADPH, relative peak height on UV chromatogram
Protocol: (§6) Microsomes: 1-{2-[5-(3-Methyl-oxetan-3-ylmethoxy)-benzoimidazol-1-yl]-quinolin-8-yl}-piperidin-4-ylamine (10 μM) was incubated in mouse, rat, dog, monkey and human liver microsomes and collected for analysis. 1-{2-[5-(3-Methyl-oxetan-3-ylmethoxy)-benzoimidazol-1-yl]-quinolin-8-yl}-piperidin-4-ylamine, (final concentration […]) was incubated in mouse (0.45 mg/mL protein), rat ([…] protein), dog ([…] protein), monkey (0.42 mg/mL protein) and human liver microsomes (1.56 mg/mL protein) containing MgCl2 (10 mM) and NADPH (1 mM) in potassium phosphate buffer (100 mM, pH 7.4) at 37° C. The total volume of each reaction mixture was 5 mL containing a total cytochrome P450 concentration of […]. Each mixture was preincubated for 10 minutes before addition of NADPH to initiate the reaction. The reaction was stopped one hour after addition of NADPH by adding two volumes of acetonitrile to the reaction mixture. […] Samples were prepared for analysis by centrifugation at 300 rpm to pellet the precipitated proteins and by evaporating the supernatant to dryness. The dried […] were reconstituted in 600 μL 50/50 10 mM ammonium formate, pH 3.0/acetonitrile, and 10 μL aliquots were analyzed by liquid chromatography and mass spectroscopy (LC/MS/MS). 1-{2-[5-(2-Methoxy-ethoxy)-benzoimidazol-1-yl]-quinolin-8-yl}-piperidin-4-ylamine was incubated in dog liver microsomes under the same conditions as a positive control.
as §2, §3, §4

[9] = Metabolite identification, rat liver microsome incubation of parent compound; format: in vitro ADME; conditions: for Relative Abundance of metabolite, Rat Liver Microsomes: parent incubated 1 h with NADPH; for Relative Abundance of metabolite, RLM-NADPH ctrl: rat liver microsomes, control without NADPH
Protocol: as §6, §2, §3, §4

[10] = Metabolite identification, dog liver microsome incubation of parent compound; format: in vitro ADME; conditions: for Relative Abundance of metabolite, DLM-NADPH ctrl: dog liver microsomes, control without NADPH; for Relative Abundance of metabolite, Dog Liver Microsomes: parent incubated 1 h with NADPH
Protocol: as §6, §2, §3, §4

| SMILES | Relative Abundance of metabolite, Human Hepatocytes [1] | Relative Abundance of metabolite, Rat Hepatocytes [2] | Relative Abundance of metabolite, Dog Hepatocytes [3] | Relative Abundance of metabolite, Human Liver Cytosol [4] | Relative Abundance of metabolite, Dog Liver Cytosol [5] | Relative Abundance of metabolite, Dog Plasma (IV) [6] | Relative Abundance of metabolite, Dog Bile (IV) [7] | Formation of M1, cofactor dependence ([8]; human) | Relative Abundance of metabolite, HLM-NADPH ctrl [8] | Relative Abundance of metabolite, Human Liver Microsomes [8] | Relative Abundance of metabolite, Rat Liver Microsomes [9] | Formation of M1, cofactor dependence ([9]; rat) | Relative Abundance of metabolite, RLM-NADPH ctrl [9] | Formation of M1, cytochrome P450 mediation ([10]; dog) | Relative Abundance of metabolite, DLM-NADPH ctrl [10] | Relative Abundance of metabolite, Dog Liver Microsomes [10] | Metabolite status in dog liver cytosolic incubations [5] | Metabolite status in dog plasma ([6]; twenty minutes to one hour after 2.0 mg/kg intravenous administration of parent) | Excretion in bile [7] | Observation in bile ([7]; dog bile 2-4 hr post-dose of parent) |
| --- | --- | --- | --- | --- | --- | --- | --- | --- | --- | --- | --- | --- | --- | --- | --- | --- | --- | --- | --- | --- |
| CC(CO)(COc1ccc2c(c1)ncn2-c1ccc2cccc(N3CCC(N)CC3)c2n1)COC1O[C@H](C(=O)O)[C@@H](O)[C@H](O)[C@H]1O (stereo in doubt) [Metabolite M5, 6-(3-{1-[8-(4-Amino-piperidin-1-yl)-quinolin-2-yl]-1H-benzoimidazol-5-yloxy}-2-hydroxymethyl-2-methyl-propoxy)-3,4,5-trihydroxy-tetrahydro-pyran-2-carboxylic acid] | − | − | + (minor metabolite) | − | − | − | − |  |  |  |  |  |  |  |  |  |  |  |  |  |
| CC(CO)(CO)COc1ccc2c(c1)ncn2-c1ccc2cccc(N3CCC(N)CC3)c2n1 [Metabolite M1, 2-{1-[8-(4-Amino-piperidin-1-yl)-quinolin-2-yl]-1H-benzoimidazol-5-yloxymethyl}-2-methyl-propane-1,3-diol] | +++ (major metabolite) | +++ (major metabolite) | +++ (major metabolite) | − | +++ (major metabolite) | +++ (major metabolite) | +++ (major metabolite) | NADPH dependent | + (minor metabolite) | +++ (major metabolite) | +++ (major metabolite) | NADPH dependent | + (minor metabolite) | not mediated by cytochrome P450 | +++ (major metabolite) | +++ (major metabolite) | predominant metabolite | major metabolite | excreted in bile |  |
| CC(CO)(COc1ccc2c(c1)ncn2-c1ccc2cccc(N3CCC(N)CC3)c2n1)C(=O)O (stereo not drawn) [Metabolite M2, 3-{1-[8-(4-Amino-piperidin-1-yl)-quinolin-2-yl]-1H-benzoimidazol-5-yloxy}-2-hydroxymethyl-2-methyl-propionic acid] | +++ (major metabolite) | +++ (major metabolite) | + (minor metabolite) | − | − | − | + (minor metabolite) |  | − | +++ (major metabolite) | − |  | − |  | − | + (minor metabolite) |  |  | excreted in bile |  |
| NC1CCN(c2cccc3ccc(-n4cnc5cc(O)ccc54)nc23)CC1 [Metabolite M8, 1-[8-(4-Amino-piperidin-1-yl)-quinolin-2-yl]-1H-benzoimidazol-5-ol] | − | − | − | − | − | − | + (minor metabolite) |  | − | − | − |  | − |  | − | − |  |  |  | observed in bile |

Source: patent publication US20100016353A1, “BENZOIMIDAZOLE DERIVATIVES USEFUL AS ANTIPROLIFERATIVE AGENTS” (priority 2004, published 2010)
